This is an account of results in paper PMC10525456, “A Comparative Study on Cyclodextrin Derivatives in Improving Oral Bioavailability of Etoricoxib as a Model Drug: Formulation and Evaluation of Solid Dispersion-Based Fast-Dissolving Tablets” (Biomedicines, 2023).

In brackets after ≈: the same amount, converted by molar mass. Read-outs that look alike come from different tables or passages of the source.

A short description of the series: Saturation solubility. Format: physicochemical. On the procedure:
For 48 h, a known excess of the samples (etoricoxib solid dispersions, physical mixtures, and pure etoricoxib) containing 10 mg of etoricoxib was mixed with 10 mL of phosphate buffer (pH = 6.8) and 0.1 N HCL (pH = 1.2) and placed in a constant-temperature rotating water bath (Gyromax—Frederick, MD, USA) set to 50 rpm (37 ± 0.5 °C). The samples were then filtered, diluted, and analyzed at 233 nm using a UV-VIS spectrophotometer (Shimadzu). The concentration of etoricoxib was then estimated. The experiment was carried out three times.

With `Cc1ccc(-c2ncc(Cl)cc2-c2ccc(S(C)(=O)=O)cc2)cn1` [Pure Etoricoxib, 5-chloro-6’-methyl-3-[4-(methylsulfonyl)phenyl]-2,3-bipyridine], the solubility at 48 h (0.1 N HCl, pH 1.2, pure drug, 0.1 N HCL pH 1.2, 37 °C, read-out: Saturation solubility of pure etoricoxib in 0.1 N HCL pH(1.2)) was found to be 73.8 µg/mL (≈ 206 µM) and the solubility at 48 h (phosphate buffer, pH 6.8, pure drug, phosphate buffer pH 6.8, 37 °C, read-out: Saturation solubility of pure etoricoxib in Phosphate buffer pH(6.8)) stood at 71.1 µg/mL (≈ 198 µM). In addition, for the setting “pure drug, phosphate buffer pH 6.8, 37 °C, 48 h”, the “Saturation solubility of pure etoricoxib in Phosphate buffer pH(6.8)” value was 71.12 μg/mL ± 1.23.
